According to ChEMBL document CHEMBL3885861, “Open TG-GATES”:

Species on record: Rattus norvegicus
Test: Open TG-GATES - Regimen: Single
Assay type: toxicity, organism-based, Sprague-Dawley
Design: regimen Single, gender Male, age 6 weeks
Settings: in vivo, po, 75 mg/kg, route gavage, dose level Low; for APTT / Bas / Eos / Fbg / Hb / Ht / Lym / MCH / MCHC / MCV / Mono / Neu / PT / Plat / RBC / Ret / WBC: tissue Blood; for KIDNEY_L / KIDNEY_R / KIDNEY_TOTAL: tissue Kidney; for LIVER: tissue Liver; for A/G / ALP / ALT / AST / BUN / CRE / Ca / Cl / DBIL / GLC / IP / K / LDH / Na / PL / RALB / TBIL / TC / TG / TP / gamma-GTP: tissue Plasma

Work on `CN(C/C=C/C#CC(C)(C)C)Cc1cccc2ccccc12` [TERBINAFINE] yielded a TERMINAL_BW (3 h) of 225.9 g, an APTT (3 h) of 19.4 s and a Bas (3 h) of 0.8%. It also gave an Eos (3 h) of 1%, a Fbg (3 h) of 219 mg/dL and a Hb (3 h) of 13.2 g/dL. The Ht (3 h) was 39.1%, the Lym (3 h) was 82.2% and the MCH (3 h) was 21.2 pg. It also gave an MCHC (3 h) of 33.8%, an MCV (3 h) of 62.7 fL and a Mono (3 h) of 2.2%. For the same compound, the Neu (3 h) was 14%, the PT (3 h) was 12 s and the Plat (3 h) was 116.2 x10_4/uL. It also gave an RBC (3 h) of 625.2 x10_4/ul, a Ret (3 h) of 7.3% and a WBC (3 h) of 88.5 x10_2/uL. It also gave a KIDNEY_L (3 h) of 1 g, a KIDNEY_R (3 h) of 1 g and a KIDNEY_TOTAL (3 h) of 2 g. It also gave an LIVER (3 h) of 10.4 g, an A/G (3 h) of 1.6 and an ALP (3 h) of 998 IU/L. For the same compound, the ALT (3 h) was 38.6 IU/L, the AST (3 h) was 69 IU/L and the BUN (3 h) was 11.8 mg/dL. The CRE (3 h) was 0.4 mg/dL, the Ca (3 h) was 10.7 mg/dL and the Cl (3 h) was 102.6 meq/L. It also gave a DBIL (3 h) of 0.088 mg/dL, a GLC (3 h) of 202.8 mg/dL and an IP (3 h) of 9.5 mg/dL. It also gave a K (3 h) of 3.8 meq/L, an LDH (3 h) of 161.4 IU/L and a Na (3 h) of 141.4 meq/L. It also gave a PL (3 h) of 143.6 mg/dL, an RALB (3 h) of 3.4 g/dL and a TBIL (3 h) of 0.1 mg/dL. For the same compound, the TC (3 h) was 79.4 mg/dL, the TG (3 h) was 51.2 mg/dL and the TP (3 h) was 5.5 g/dL. It also gave a gamma-GTP (3 h) of 0.8 IU/L, a TERMINAL_BW (6 h) of 221.9 g and an APTT (6 h) of 19.3 s. The Bas (6 h) was 0.8%, the Eos (6 h) was 1% and the Fbg (6 h) was 224.2 mg/dL. For the same compound, the Hb (6 h) was 13.5 g/dL, the Ht (6 h) was 40% and the Lym (6 h) was 78.8%. It also gave an MCH (6 h) of 21.3 pg, an MCHC (6 h) of 33.7% and an MCV (6 h) of 63.1 fL. It also gave a Mono (6 h) of 2.4%, a Neu (6 h) of 17.2% and a PT (6 h) of 12.1 s. The Plat (6 h) was 113 x10_4/uL, the RBC (6 h) was 634 x10_4/ul and the Ret (6 h) was 6.9%. For the same compound, the WBC (6 h) was 114.1 x10_2/uL, the KIDNEY_L (6 h) was 1 g and the KIDNEY_R (6 h) was 1 g. For the same compound, the KIDNEY_TOTAL (6 h) was 2 g, the LIVER (6 h) was 10.2 g and the A/G (6 h) was 1.6. It also gave an ALP (6 h) of 872.2 IU/L, an ALT (6 h) of 34.6 IU/L and an AST (6 h) of 66 IU/L. For the same compound, the BUN (6 h) was 10.6 mg/dL, the CRE (6 h) was 0.4 mg/dL and the Ca (6 h) was 10.9 mg/dL. The Cl (6 h) was 102.2 meq/L, the DBIL (6 h) was 0.086 mg/dL and the GLC (6 h) was 200 mg/dL. It also gave an IP (6 h) of 9.3 mg/dL, a K (6 h) of 4 meq/L and an LDH (6 h) of 147 IU/L. For the same compound, the Na (6 h) was 140.8 meq/L, the PL (6 h) was 143.2 mg/dL and the RALB (6 h) was 3.4 g/dL. It also gave a TBIL (6 h) of 0.1 mg/dL, a TC (6 h) of 77.6 mg/dL and a TG (6 h) of 76.6 mg/dL. It also gave a TP (6 h) of 5.5 g/dL, a gamma-GTP (6 h) of 1 IU/L and a TERMINAL_BW (9 h) of 219.9 g. The APTT (9 h) was 18.1 s, the Bas (9 h) was 0.8% and the Eos (9 h) was 1.2%. The Fbg (9 h) was 215.6 mg/dL, the Hb (9 h) was 13.2 g/dL and the Ht (9 h) was 39.5%. The Lym (9 h) was 77.6%, the MCH (9 h) was 21.6 pg and the MCHC (9 h) was 33.6%. For the same compound, the MCV (9 h) was 64.3 fL, the Mono (9 h) was 2% and the Neu (9 h) was 18.4%. It also gave a PT (9 h) of 12.6 s, a Plat (9 h) of 113.5 x10_4/uL and an RBC (9 h) of 614.2 x10_4/ul. It also gave a Ret (9 h) of 6.6%, a WBC (9 h) of 90.4 x10_2/uL and a KIDNEY_L (9 h) of 1 g. The KIDNEY_R (9 h) was 1 g, the KIDNEY_TOTAL (9 h) was 2 g and the LIVER (9 h) was 8.9 g. For the same compound, the A/G (9 h) was 1.6, the ALP (9 h) was 930.2 IU/L and the ALT (9 h) was 33.2 IU/L. It also gave an AST (9 h) of 71.4 IU/L, a BUN (9 h) of 10.6 mg/dL and a CRE (9 h) of 0.3 mg/dL. The Ca (9 h) was 10.3 mg/dL, the Cl (9 h) was 103.8 meq/L and the DBIL (9 h) was 0.062 mg/dL. It also gave a GLC (9 h) of 202.6 mg/dL, an IP (9 h) of 9.9 mg/dL and a K (9 h) of 3.8 meq/L. For the same compound, the LDH (9 h) was 195.4 IU/L, the Na (9 h) was 141.4 meq/L and the PL (9 h) was 124 mg/dL. For the same compound, the RALB (9 h) was 3.3 g/dL, the TBIL (9 h) was 0.1 mg/dL and the TC (9 h) was 68.8 mg/dL. The TG (9 h) was 29.8 mg/dL, the TP (9 h) was 5.4 g/dL and the gamma-GTP (9 h) was 1.6 IU/L. For the same compound, the TERMINAL_BW (24 h) was 238.9 g, the APTT (24 h) was 19.4 s and the Bas (24 h) was 0.8%. The Eos (24 h) was 1%, the Fbg (24 h) was 227.2 mg/dL and the Hb (24 h) was 13.3 g/dL. For the same compound, the Ht (24 h) was 39.7%, the Lym (24 h) was 77.2% and the MCH (24 h) was 21.1 pg. The MCHC (24 h) was 33.6%, the MCV (24 h) was 62.9 fL and the Mono (24 h) was 3%. The Neu (24 h) was 17.8%, the PT (24 h) was 12 s and the Plat (24 h) was 124.5 x10_4/uL. The RBC (24 h) was 631.4 x10_4/ul, the Ret (24 h) was 6.6% and the WBC (24 h) was 82.1 x10_2/uL. For the same compound, the KIDNEY_L (24 h) was 1.1 g, the KIDNEY_R (24 h) was 1 g and the KIDNEY_TOTAL (24 h) was 2.1 g. It also gave an LIVER (24 h) of 11.8 g, an A/G (24 h) of 1.5 and an ALP (24 h) of 1096 IU/L. It also gave an ALT (24 h) of 42.8 IU/L, an AST (24 h) of 84.8 IU/L and a BUN (24 h) of 15.2 mg/dL. The CRE (24 h) was 0.4 mg/dL, the Ca (24 h) was 10.8 mg/dL and the Cl (24 h) was 104.2 meq/L. For the same compound, the DBIL (24 h) was 0.1 mg/dL, the GLC (24 h) was 194.2 mg/dL and the IP (24 h) was 7.7 mg/dL. The K (24 h) was 4.3 meq/L, the LDH (24 h) was 207.8 IU/L and the Na (24 h) was 141 meq/L. The PL (24 h) was 135.6 mg/dL, the RALB (24 h) was 3.4 g/dL and the TBIL (24 h) was 0.2 mg/dL. For the same compound, the TC (24 h) was 68.6 mg/dL, the TG (24 h) was 109.2 mg/dL and the TP (24 h) was 5.6 g/dL. It also gave a gamma-GTP (24 h) of 1.6 IU/L.
